Like-named read-outs stand apart in the source and are kept apart here.
What was measured:
[1] = test system: Escherichia coli expressing NDM-1 (CLB30005, CLB30016); type: cell-based; details: NDM-1 strain, with imipenem 1 μg/ml, 95% inhibition of growth
In short: (§1)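 Clinical strains grown overnight on blood agar at 35°C, colonies suspended in saline, diluted 1:100 into 1.1×CAMHB. Test compound titrated with imipenem at 1 μg/ml; incubated 22–24 h at 35°C, growth read by absorbance.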

[2] = test system: Klebsiella pneumoniae expressing VIM-1 (IHMA599644); type: cell-based; details: VIM-1 strain IHMA599644, with imipenem 1 μg/ml, 95% inhibition of growth
In short: as §1

[3] = test system: Serratia marcescens expressing IMP-1 (CL5741); type: cell-based; details: IMP-1 strain CL5741, with imipenem 1 μg/ml, 95% inhibition of growth
In short: as §1

[4] = test system: Pseudomonas aeruginosa MB9798 vs MB9799; details: ratio MITC95 PA_9798/MITC95 PA_9799
In short: (§2)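 PAO1 pair, broth microdilution; fixed β-lactam (imipenem/ceftazidime) at ~CLSI breakpoint + fixed class A/C BLI for AmpC; serial MBLi titration; endpoint = MBLi conc. restoring susceptibility; MB9798:MB9799 ratio = efflux liability.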

[5] = test system: Pseudomonas aeruginosa efflux+ (MB9798), IMP-1; type: cell-based; details: concentration restoring susceptibility to imipenem at 2 μg/mL in the presence of a class A, C, D serine β-lactamase inhibitor closely related to relebactam
In short: as §2

[6] = test system: Pseudomonas aeruginosa efflux− (MB9799), IMP-1; type: cell-based; details: concentration restoring susceptibility to imipenem at 2 μg/mL in the presence of a class A, C, D serine β-lactamase inhibitor closely related to relebactam
In short: as §2

[7] = biological target: IMP-1 (Serratia marcescens, UniProt P52699); test: biochemical; type: biochemical; details: fluorescence assay, CCF2-FA substrate, 2 pM enzyme, 2 hours at 25° C.; read-out: IMP-1 IC50
In short: (§3)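 Fluorescence assay, CCF2-FA substrate (cephalosporin core linking 7-hydroxycoumarin to fluorescein); inhibitor + MBL + substrate, 2 h, 25° C. IC50 by 4-parameter fit, semi-log plot.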

[8] = biological target: NDM-1 (Klebsiella pneumoniae, UniProt C7C422); test: biochemical; type: biochemical; details: fluorescence assay, CCF2-FA substrate, 1 pM enzyme, 2 hours at 25° C.; read-out: NDM-1 IC50
In short: as §3

[9] = biological target: VIM-1 (Pseudomonas aeruginosa (strain ATCC 15692 / DSM 22644 / CIP 104116 / JCM 14847 / LMG 12228 / 1C / PRS 101 / PAO1), UniProt A0A0F7KYQ8); test: biochemical; details: CCF2-FA substrate, 30 pM enzyme, 2 hours at 25° C.
In short: as §3

[10] = fluorescence assay, read-out: VIM-1 IC50

Sequence of NDM-1 (C7C422 whole entry, looked up, species assumed): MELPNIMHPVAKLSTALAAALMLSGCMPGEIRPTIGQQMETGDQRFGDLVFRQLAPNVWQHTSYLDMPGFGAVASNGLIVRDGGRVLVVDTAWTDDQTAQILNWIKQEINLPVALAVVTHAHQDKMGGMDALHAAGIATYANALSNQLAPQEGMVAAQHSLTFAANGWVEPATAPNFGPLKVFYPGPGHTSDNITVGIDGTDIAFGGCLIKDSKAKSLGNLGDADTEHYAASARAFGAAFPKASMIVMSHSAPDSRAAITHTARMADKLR
Sequence of IMP-1 (P52699 whole entry, looked up, species assumed): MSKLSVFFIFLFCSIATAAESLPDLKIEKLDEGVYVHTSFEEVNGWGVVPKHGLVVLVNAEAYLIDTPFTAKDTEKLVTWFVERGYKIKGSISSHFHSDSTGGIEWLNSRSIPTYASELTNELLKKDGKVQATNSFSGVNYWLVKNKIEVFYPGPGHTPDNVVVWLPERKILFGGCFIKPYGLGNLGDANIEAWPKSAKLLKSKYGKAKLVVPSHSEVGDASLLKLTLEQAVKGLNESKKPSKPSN

`NCCNC(=O)c1cccc(-c2ccc(S(=O)(=O)NCCN)c(S(N)(=O)=O)c2-c2nn[nH]n2)c1` [Example 334, N-(2-aminoethyl)-4′-(N-(2-aminoethyl)sulfamoyl)-3′-sulfamoyl-2′-(2H -tetrazol-5-yl)-[1,1′-biphenyl]-3-carboxamide] was tested, and the “Escherichia coli MITC95” value [1] was 0.3906 µM, the “Klebsiella pneumoniae MITC95” value [2] was 0.7813 µM and the “Serratia marcescens MITC95” value [3] was 0.7813 µM. For the same compound, the Efflux ratio [4] was 2.00, the “P. aeruginosa expressing IMP-1, efflux + (MB9798) MITC95” value [5] was 1.563 µM and the “P. aeruginosa expressing IMP-1, efflux − (MB9799) MITC95” value [6] was 0.7813 µM. The IC50 [7] was 4.6 nM, the IC50 [8] was 1.32 nM and the IC50 [9, 10] was 0.247 nM.
In the case of `NCCNS(=O)(=O)c1ccc(-c2cccc3[nH]c([C@H](N)CN)nc23)c(-c2nn[nH]n2)c1S(N)(=O)=O` [Example 335, (R)—N1-(2-aminoethyl)-4-(2-(1,2-diaminoethyl)-1H-benzo[d]imidazole-4-yl)-3-(2H-tetrazol-5-yl)benzene-1,2-disulfonamide], the “Escherichia coli MITC95” value [1] is reported as 1.563 µM, the “Klebsiella pneumoniae MITC95” value [2] is reported as 3.125 µM and the “Serratia marcescens MITC95” value [3] is reported as 3.125 µM. The Efflux ratio [4] was 2.00, the “P. aeruginosa expressing IMP-1, efflux + (MB9798) MITC95” value [5] was 3.125 µM and the “P. aeruginosa expressing IMP-1, efflux − (MB9799) MITC95” value [6] was 1.563 µM. The IC50 [7] was 4.78 nM, the IC50 [8] was 0.459 nM and the IC50 [9, 10] was 0.287 nM.
With `NCCNS(=O)(=O)c1ccc(-c2cccc3[nH]c([C@@H](N)CN)nc23)c(-c2nn[nH]n2)c1S(N)(=O)=O` [Example 336, (S)—N1-(2-aminoethyl)-4-(2-(1,2-diaminoethyl)-1H-benzo[d]imidazol-4-yl)-3-(2H-tetrazol-5-yl)benzene-1,2-disulfonamide] the “Escherichia coli MITC95” value [1] was 1.563 µM, the “Klebsiella pneumoniae MITC95” value [2] was 3.125 µM and the “Serratia marcescens MITC95” value [3] was 3.125 µM. For the same compound, the Efflux ratio [4] was 2.00, the “P. aeruginosa expressing IMP-1, efflux + (MB9798) MITC95” value [5] was 3.125 µM and the “P. aeruginosa expressing IMP-1, efflux − (MB9799) MITC95” value [6] was 1.563 µM. The IC50 [7] was 2.9 nM, the IC50 [8] was 0.325 nM and the IC50 [9, 10] was 0.233 nM.
In the case of `NCCNS(=O)(=O)c1ccc(-c2cccc3[nH]c(CCN)nc23)c(-c2nn[nH]n2)c1S(N)(=O)=O` [Example 337, N1-(2-aminoethyl)-4-(2-(2-aminoethyl)-1H-benzo[d]imidazol-4-yl)-3-(2H-tetrazol-5-yl)benzene-1,2-disulfonamide], the “Escherichia coli MITC95” value [1] is reported as 0.7813 µM, the “Klebsiella pneumoniae MITC95” value [2] is reported as 0.7813 µM and the “Serratia marcescens MITC95” value [3] is reported as 0.7813 µM. For the same compound, the Efflux ratio [4] was 2.00, the “P. aeruginosa expressing IMP-1, efflux + (MB9798) MITC95” value [5] was 0.7813 µM and the “P. aeruginosa expressing IMP-1, efflux − (MB9799) MITC95” value [6] was 0.3906 µM. The IC50 [7] was 2.23 nM, the IC50 [8] was 0.208 nM and the IC50 [9, 10] was 0.2 nM.
`NCCNS(=O)(=O)c1ccc(C2=CC(N)CCC2)c(-c2nn[nH]n2)c1S(N)(=O)=O` (stereo not drawn) [Example 338, 5′-Amino-N4-(2-aminoethyl)-2-(2H-tetrazol-5-yl)-2′,3′,4′,5′-tetrahydro-[1,1′-biphenyl]-3,4-disulfonamide] was tested, and the “Escherichia coli MITC95” value [1] was 1.563 µM, the “Klebsiella pneumoniae MITC95” value [2] was 1.563 µM and the “Serratia marcescens MITC95” value [3] was 1.563 µM. For the same compound, the Efflux ratio [4] was 4.00, the “P. aeruginosa expressing IMP-1, efflux + (MB9798) MITC95” value [5] was 6.25 µM and the “P. aeruginosa expressing IMP-1, efflux − (MB9799) MITC95” value [6] was 1.563 µM. For the same compound, the IC50 [7] was 91 nM, the IC50 [8] was 37.6 nM and the IC50 [9, 10] was 6.42 nM.
With `N[C@H]1C=C(c2ccc(S(=O)(=O)N[C@@H]3CCNC3)c(S(N)(=O)=O)c2-c2nn[nH]n2)CCC1` [Example 339, (R)-5′-amino-N4-((R)-pyrrolidin-3-yl)-2-(2H-tetrazol-5-yl)-2′,3′,4′,5′-tetrahydro-[1,1′-biphenyl]-3,4-disulfonamide] the “Escherichia coli MITC95” value [1] was 0.7813 µM, the “Klebsiella pneumoniae MITC95” value [2] was 0.7813 µM and the “Serratia marcescens MITC95” value [3] was 1.563 µM. For the same compound, the Efflux ratio [4] was 4.00, the “P. aeruginosa expressing IMP-1, efflux + (MB9798) MITC95” value [5] was 6.25 µM and the “P. aeruginosa expressing IMP-1, efflux − (MB9799) MITC95” value [6] was 1.563 µM. It also gave an IC50 [7] of 34.1 nM, an IC50 [8] of 11.9 nM and an IC50 ([9]; VIM-1 IC50, fluorescence assay) of 2.1 nM.
For `N[C@@H]1C=C(c2ccc(S(=O)(=O)N[C@@H]3CCNC3)c(S(N)(=O)=O)c2-c2nn[nH]n2)CCC1` [Example 340, (S)-5′-amino-N4-((R)-pyrrolidin-3-yl)-2-(2H-tetrazol-5-yl)-2′,3′,4′,5′-tetrahydro-[1,1′-biphenyl]-3,4-disulfonamide], the “Escherichia coli MITC95” value [1] was 0.3906 µM, the “Klebsiella pneumoniae MITC95” value [2] was 0.7813 µM and the “Serratia marcescens MITC95” value [3] was 1.563 µM. The Efflux ratio [4] was 4.00, the “P. aeruginosa expressing IMP-1, efflux + (MB9798) MITC95” value [5] was 6.25 µM and the “P. aeruginosa expressing IMP-1, efflux − (MB9799) MITC95” value [6] was 1.563 µM. For the same compound, the IC50 [7] was 46.7 nM, the IC50 [8] was 6.29 nM and the IC50 ([9]; VIM-1 IC50, fluorescence assay) was 2.89 nM.
`NCCCNC(=O)c1cccc(-c2ccc(S(=O)(=O)NCCN)c(S(N)(=O)=O)c2-c2nn[nH]n2)c1` [Example 341, 4′-(N-(2-aminoethyl)sulfamoyl)-N-(3-aminopropyl)-3′-sulfamoyl-2′-(2H-tetrazol-5-yl)-[1,1′-biphenyl]-3-carboxamide] was tested, and the “Escherichia coli MITC95” value [1] was 0.7813 µM, the “Klebsiella pneumoniae MITC95” value [2] was 3.125 µM and the “Serratia marcescens MITC95” value [3] was 1.563 µM. The Efflux ratio [4] was 2.00, the “P. aeruginosa expressing IMP-1, efflux + (MB9798) MITC95” value [5] was 1.563 µM and the “P. aeruginosa expressing IMP-1, efflux − (MB9799) MITC95” value [6] was 0.7813 µM. For the same compound, the IC50 [7] was 4.13 nM, the IC50 [8] was 1.71 nM and the IC50 [9, 10] was 0.474 nM.
With `NCCNS(=O)(=O)c1ccc(C2CCC[C@H](N)C2)c(-c2nn[nH]n2)c1S(N)(=O)=O` (stereo partly drawn) [Example 342, 4-((3S)-3-aminocyclohexyl)-N1-(2-aminoethyl)-3-(2H-tetrazol-5-yl)benzene-1,2-disulfonamide] the “Escherichia coli MITC95” value [1] was 1.563 µM, the “Klebsiella pneumoniae MITC95” value [2] was 1.563 µM and the “Serratia marcescens MITC95” value [3] was 3.125 µM. The Efflux ratio [4] was 4.00, the “P. aeruginosa expressing IMP-1, efflux + (MB9798) MITC95” value [5] was 25 µM and the “P. aeruginosa expressing IMP-1, efflux − (MB9799) MITC95” value [6] was 6.25 µM. For the same compound, the IC50 [7] was 88.7 nM, the IC50 [8] was 32.7 nM and the IC50 ([9]; VIM-1 IC50, fluorescence assay) was 5.31 nM.
`NCCNS(=O)(=O)c1ccc(-c2cccc3[nH]c(CN)nc23)c(-c2nn[nH]n2)c1S(N)(=O)=O` [Example 343] was tested, and the “Escherichia coli MITC95” value [1] was 0.7813 µM, the “Klebsiella pneumoniae MITC95” value [2] was 0.7813 µM and the “Serratia marcescens MITC95” value [3] was 0.7813 µM. For the same compound, the Efflux ratio [4] was 1.00, the “P. aeruginosa expressing IMP-1, efflux + (MB9798) MITC95” value [5] was 0.7813 µM and the “P. aeruginosa expressing IMP-1, efflux − (MB9799) MITC95” value [6] was 0.7813 µM. The IC50 [7] was 1.37 nM, the IC50 [8] was 0.195 nM and the IC50 [9, 10] was 0.207 nM.
For `NCCNS(=O)(=O)c1ccc(-c2cccc3sc(CN)nc23)c(-c2nn[nH]n2)c1S(N)(=O)=O` [Example 345, N^1-(2-aminoethyl)-4-(2-(aminomethyl)benzo[d]thiazol-4-yl)-3-(2H -tetrazol-5-yl)benzene-1,2-disulfonamide], the “Escherichia coli MITC95” value [1] was 0.5859 µM, the “Klebsiella pneumoniae MITC95” value [2] was 0.7813 µM and the “Serratia marcescens MITC95” value [3] was 0.7813 µM. The Efflux ratio [4] was 1.00, the “P. aeruginosa expressing IMP-1, efflux + (MB9798) MITC95” value [5] was 0.7813 µM and the “P. aeruginosa expressing IMP-1, efflux − (MB9799) MITC95” value [6] was 0.7813 µM. The IC50 [7] was 0.676 nM, the IC50 [8] was 0.193 nM and the IC50 [9, 10] was 0.129 nM.
For `NCCNS(=O)(=O)c1ccc(-c2cccc(C(=O)NC[C@H](O)CN)c2)c(-c2nn[nH]n2)c1S(N)(=O)=O` [Example 346], the “Escherichia coli MITC95” value [1] was 1.563 µM, the “Klebsiella pneumoniae MITC95” value [2] was 1.563 µM and the “Serratia marcescens MITC95” value [3] was 1.563 µM. The Efflux ratio [4] was 2.00, the “P. aeruginosa expressing IMP-1, efflux + (MB9798) MITC95” value [5] was 1.563 µM and the “P. aeruginosa expressing IMP-1, efflux − (MB9799) MITC95” value [6] was 0.7813 µM. The IC50 [7] was 3.65 nM, the IC50 [8] was 1.49 nM and the IC50 ([9]; VIM-1 IC50, fluorescence assay) was 0.467 nM.
`NCCNS(=O)(=O)c1ccc(-c2ccc3ncn(CCN)c3c2)c(-c2nn[nH]n2)c1S(N)(=O)=O` [Example 348, N^1-(2-aminoethyl)-4-(1-(2-aminoethyl)-1H-benzo[d]imidazol-6-yl)-3-(2H-tetrazol-5-yl)benzene-1,2-disulfonamide] was tested, and the “Escherichia coli MITC95” value [1] was 1.563 µM, the “Klebsiella pneumoniae MITC95” value [2] was 1.563 µM and the “Serratia marcescens MITC95” value [3] was 1.563 µM. For the same compound, the Efflux ratio [4] was 4.00, the “P. aeruginosa expressing IMP-1, efflux + (MB9798) MITC95” value [5] was 3.125 µM and the “P. aeruginosa expressing IMP-1, efflux − (MB9799) MITC95” value [6] was 0.7813 µM. The IC50 [7] was 3.33 nM, the IC50 [8] was 1.47 nM and the IC50 [9, 10] was 0.536 nM.

From patent US10221163B2 (priority 2015, dated 2019)
